Reference: patent publication US11357743B2, “Ketamine and propofol admixture” (Mayo Foundation for Medical Education and Research, priority 2017, dated 2022)

Legend:
[1] = Ketofol vs etomidate for emergent endotracheal intubation in critically ill patients (randomized clinical trial); assay type: in vivo, human; conditions: share of group
[2] = Nursing and patient assessment surveys after induction of general anesthesia with propofol or ketofol (randomized, double-blinded controlled trial)
From the text: 85 patients of ASA Class 1-2 scheduled for surgical procedures that involved general anesthesia were assigned to one of two arms, one involving induction with propofol and the other involving induction with “ketofol” (a ketamine/propofol combination) in a randomized, double-blinded controlled trial. Patients were placed on standard ASA monitors including a BIS monitor and a noninvasive cardiac output monitor (NICOM) prior to induction of general anesthesia.
One minute before induction, baseline hemodynamics were recorded with standard ASA monitors as well as with the NICOM. Providers were given one 20 ml syringe and one 10 ml syringe for rescue if needed. As part of the induction, fentanyl (1-2 mcg/kg) and any relaxant excluding succinylcholine and pancuronium was given. The 20 ml syringe in both groups looked identical, appeared to be propofol but depending on the group they were randomized to, it represented either 2 mg/kg of propofol (propofol group) or 0.75 mg/kg of ketamine and 1.5 mg/kg of propofol (“ketofol” group). The 10 ml rescue syringe, if used, represented 1 mg/kg of propofol (propofol group) or 0.25 mg/kg of ketamine and 0.5 mg/kg of propofol (“ketofol” group). Hemodynamics were recorded every minute for a total of 30 minutes post-induction. During this time, anesthesia was maintained with any volatile agent excluding nitrous oxide. […] Patients were given survey questions that centered on emergence, discharge times, pain control, and nausea/vomiting. In addition, nurses were also asked to fill out a survey which dealt with similar questions.

[3] = Likert scaled responses from 0 (strongly disagree) to 7 (strongly agree)
[4] = Likert scaled responses from 0 (very poorly) to 7 (perfectly)

| Structure (SMILES) | Serious adverse events reported [1] [%] | Patient Assessment: Emergence (woke up well), Mean [2, 3] | Patient Assessment: No PONV, Mean [2, 3] | Patient Assessment: No Pain, Mean [2, 3] | Nursing Assessment: Discharge (from unit), Mean [2, 4] | Nursing Assessment: Emergence (wake up), Mean [2, 4] | Nursing Assessment: Protection from PONV, Mean ([2]; Likert scaled responses from 0 (very poorly) to 7 (perfectly), PONV = post-operative nausea/vomiting) |
| --- | --- | --- | --- | --- | --- | --- | --- |
| CCOC(=O)c1cncn1[C@H](C)c1ccccc1 [etomidate] | 5 |  |  |  |  |  |  |
| CC(C)c1cccc(C(C)C)c1O [Propofol, 2,6-diisopropylphenol] |  | 5.5 | 5.5 | 3.8 | 5.1 | 5.4 | 5.5 |
